Measurements published in US6761904B2 (Nycomed Austria GmbH, priority 2000, dated 2004).

Columns and labels:
[1] = Plasma pharmacokinetics of midodrine and desglymidodrine after oral intake / colon absorption (general findings and presumptions); format: in vivo, human; settings: for Cmax: 7.5 mg, presumption made in estimating the target profile, obtained after tablet administration
[2] = after oral administration of a single dose; cited from earlier work

SMILES	tmax of desglymidodrine after colon absorption ([1]; after application to the colon)	Cmax ([1]; human, in vivo) [ng/mL]	Tmax ([1]; human, in vivo, po) [h]	Cmax ([1]; human, plasma, oral) [ng/mL]	tmax after oral intake of midodrine ([1]; midodrine itself in plasma)	persistence of the pressor effect [2] [h]	time until the pressor effect is manifest [2] [min]
COc1ccc(OC)c(C(O)CN)c1 (stereo not drawn) [desglymidodrine, alpha-(aminomethyl)-2,5-dimethoxy-benzenemethanol]	approximately 3 hours	~3.75	1 to 2	–	–	–	–
COc1ccc(OC)c(C(O)CNC(=O)CN)c1 (stereo not shown) [midodrine, 2-amino-N-[2-(2,5-dimethoxyphenyl)-2-hydroxyethyl]-acetamide]	–	–	–	~11	about 30 min	3 to 6	20 to 90
